“Also recorded” adds a separate entry of the source. Like-named read-outs stand apart in the source and are kept apart here.
Columns and labels:
[1] = test system: aMCI subjects; experiment: explicit 3-alternative forced choice task (lure-based memory performance); type: in vivo, human
[2] = test system: aged-impaired (AI) rats; experiment: eight-arm Radial Arm Maze task, one-hour delay (levetiracetam, valproate, combination); type: in vivo, rat; details: for average no. of errors ± SEM in retention test: one-hour delay, vehicle 2.00±0.42; for reducing the number of errors in the radial arm maze: levetiracetam on its own
Procedure: The effects of levetiracetam on the spatial memory retention of aged-impaired (AI) rats are assessed in a Radial Arm Maze (RAM) behavioral task using vehicle control and five different dosage levels of levetiracetam (1.25 mg/kg/day, 2.5 mg/kg/day, 5 mg/kg/day, 10 mg/kg/day and 20 mg/kg/day). RAM behavioral tasks are preformed on ten AI rats. All six treatment conditions are tested on all ten rats, as described above for the MWM test. The RAM apparatus used consists of eight equidistantly-spaced arms. An elevated maze arm (7 cm width×75 cm length) projects from each facet of an octagonal center platform (30 cm diameter, 51.5 cm height). Clear side walls on the arms are 10 cm high and are angled at 65° to form a trough. A food well (4 cm diameter, 2 cm deep) is located at the distal end of each arm. Froot Loops™ (Kellogg Company) are used as rewards. Blocks constructed of Plexiglas™ (30 cm height×12 cm width) can be positioned to prevent entry to any arm. Numerous extra maze cues surrounding the apparatus are also provided. The AI rats are initially subjected to a pre-training test (Chappell et al. Neuropharmacology 37: 481-487, 1998). The pre-training test consists of a habituation phase (4 days), a training phase on the standard win-shift task (18 days) and another training phase (14 days) in which a brief delay is imposed between presentation of a subset of arms designated by the experimenter (e.g., 5 arms available and 3 arms blocked) and completion of the eight-arm win-shift task (i.e., with all eight arms available). In the habituation phase, rats are familiarized to the maze for an 8-minute session on four consecutive days. In each of these sessions food rewards are scattered on the RAM, initially on the center platform and arms and then progressively confined to the arms. After this habituation phase, a standard training protocol is used, in which a food pellet is located at the end of each arm. Rats receive one trial each day for 18 days. Each daily trial terminates when all eight food pellets have been obtained or when either 16 choices are made or 15 minutes had elapsed. After completion of this training phase, a second training phase is carried out in which the memory demand is increased by imposing a brief delay during the trial. At the beginning of each trial, three arms of the eight-arm maze are blocked. Rats are allowed to obtain food on the five arms to which access is permitted during this initial ‘information phase’ of the trial. Rats are then removed from the maze for 60 seconds, during which time the barriers on the maze are removed, thus allowing access to all eight arms. Rats are then placed back onto the center platform and allowed to obtain the remaining food rewards during this ‘retention test’ phase of the trial. The identity and configuration of the blocked arms varies across trials. The number of “errors” the AI rats make during the retention test phase is tracked. An error occurs in the trial if the rats enter an arm from which food had already been retrieved in the pre-delay component of the trial, or if it re-visits an arm in the post-delay session that has already been visited. After completion of the pre-training test, rats are subjected to trials with more extended delay intervals, i.e., a one-hour delay, between the information phase (presentation with some blocked arms) and the retention test (presentation of all arms). During the delay interval, rats remain off to the side of the maze in the testing room, on carts in their individual home cages. AI rats are pretreated 30-40 minutes before daily trials with a one-time shot of the following six conditions: 1) vehicle control (0.9% saline solution); 2) levetiracetam (1.25 mg/kg/day); 3) levetiracetam (2.5 mg/kg/day); 4) levetiracetam (5 mg/kg/day); 5) levetiracetam (10 mg/kg/day); 6) levetiracetam (20 mg/kg/day); […] Injections are given every other day with intervening washout days. Each AI rat is treated with all six conditions within 23 days of testing. […]

[3] = levetiracetam blood plasma levels in aged-impaired rats; type: in vivo; details: rat
Procedure: Rats: Blood is drawn from aged-impaired rats by cardiac puncture during perfusion after a 28-day levetiracetam treatment period and is sent for analysis of levetiracetam plasma levels by MedTox Laboratories in St. Paul, Minn.
The levetiracetam blood levels in the aged-impaired rats treated with daily levetiracetam doses of 10 mg/kg and 60 mg/kg can be use to estimate the levetiracetam blood level of its daily dose of 20 mg/kg. This extrapolation gives an estimated levetiracetam blood level of 7.6 mcg/ml for the 20 mg/kg daily dose.

[4] = test system: DG/CA3 region of aMCI subjects; experiment: fMRI activity in DG/CA3 during lure stimuli correctly identified as similar; type: in vivo, human
Procedure: A within-subjects trial of 8 weeks duration, involving 17 amnestic MCI (aMCI) subjects and 17 age-matched controls with a low dose treatment of levetiracetam is conducted. […] Cognitive testing and fMRI imaging data are obtained from the subjects after each two week period of drug/placebo treatment. […] The […]

[5] = test system: aMCI subjects; experiment: neuropsychological tests outside the scanner (Buschke, Benton, Verbal Paired Associates); type: in vivo, human; details: 125 mg twice a day for two weeks
Text: All participants undergo neuropsychological evaluation at the time of assessment for treatment efficacy (Visits 1 and 2), as well as at the Baseline Visit. The evaluation occurs outside of the scanner and includes the Buschke Selective Reminding Test (Buschke and Fuld, 1974) and the Verbal Paired Associates subtest, the Logical Memory subtest, the Visual Reproduction subtest of the Wechsler Memory Scale-Revised (WMS-R) (Wechsler, 1997), and the Benton Visual Retention Test, as these tasks are particularly sensitive to medial temporal lobe function and early memory problems (Marquis et al., 2002 and Masur et al., 1994). Additionally, subjects are asked to complete tests of more general cognitive function such as tests to assess general mental status, executive function, attention and general naming ability. All neuropsychological tests are administered by a trained research assistant during a 60-minute session. As the three neuropsychological assessments in this study occur within a time period of 8 weeks, different versions of the neuropsychological tests are used to minimize test specific practice effects. Breaks are provided to the subject as needed.

With `CC[C@@H](C(N)=O)N1CCCC1=O` [levetiracetam, (2S)-2-(2-oxopyrrolidin-1-yl) butanamide] the “performance in the explicit 3-alternative forced choice task” value ([1]; 62.5 mg BID for two weeks vs placebo, p=0.041) was “further improved performance in cognitive tests; also recorded: improves significantly”, the “performance in the explicit 3-alternative forced choice task” value ([1]; 125 mg twice a day for two weeks vs placebo, p=0.039) was “improves significantly” and the “performance in the explicit 3-alternative forced choice task” value ([1]; 250 mg BID for two weeks vs placebo, p=0.2396) was “does not significantly improve”. For the same compound, the “average no. of errors ± SEM in retention test” value ([2]; 5 mg/kg/day i.p., t(9)=2.18, p=0.057) was 0.75±0.32, the “average no. of errors ± SEM in retention test” value ([2]; 10 mg/kg/day i.p., t(9)=2.37, p=0.042) was 0.80±0.27 and the “performance of AI rats in the radial maze task” value ([2]; levetiracetam 20 mg/kg) was “fails to improve the performance”. The “reducing the number of errors in the radial arm maze” value (shortened to “reducing the number of errors”) ([2]; 1.25 mg/kg i.p.) was “not at 1.25 mg/kg or 2.5 mg/kg”, the “reducing the number of errors” value ([2]; 2.5 mg/kg i.p.) was “not at 1.25 mg/kg or 2.5 mg/kg” and the “reducing the number of errors” value ([2]; 5-10 mg/kg i.p.) was “effective in reducing the number of errors”. It also gave a concentration at 28 days ([3]; 20 mg/kg daily dose, extrapolated from 10 and 60 mg/kg, read-out: estimated levetiracetam blood level) of 7600 ng/mL, a concentration at 28 days ([3]; other: osmotic minipumps, 10 mg/kg/day, 28 days, SEM±0.255, read-out: mean levetiracetam blood plasma level) of 3800 ng/mL and a concentration at 28 days ([3]; other: osmotic minipumps, 20 mg/kg daily dose, extrapolated from 10 and 60 mg/kg, read-out: estimated levetiracetam blood level) of 7600 ng/mL. The “DG/CA3 hyperactivity (fMRI mean activity)” value ([4]; 125 mg twice a day for two weeks vs placebo, p=0.037) was “reduces DG/CA3 hyper-activity”, the “DG/CA3 hyperactivity (fMRI mean activity)” value ([4]; 250 mg BID for two weeks vs placebo, N=17) was “does not significantly reduce; also recorded: No such improvement is observed” and the “performance in Benton Visual Retention Test” value [5] was “fails to rescue performance”. The “performance in Buschke Selective Reminding Test—Delayed Recall” value [5] was “fails to rescue performance”, the “performance in Verbal Paired Associates Test—Delayed Recall” value [5] was “fails to rescue performance” and the “performance in Verbal Paired Associates Test—Recognition” value [5] was “fails to rescue performance”.

From patent US10154988B2, “Methods and compositions for treating schizophrenia” (The Johns Hopkins University, priority 2012, dated 2018)
